Experimental data as given in patent publication US20260008801A1, “BIO-BASED SURFACTANTS DERIVED FROM CARBOHYDRATES” (COÖPERATIE KONINKLIJKE COSUN U.A., priority 2022, published 2026).

Assay: Foaming power and stability, Ultra-Turrax, 0.4% aq. surfactant
Format: physicochemical
Details: Table E5.2; foam volume after 1 min
Experimental: Foaming power was also tested at room temperature with 5 mL of 0.4% aq. surfactant (20 mg) solution in a 50 mL measuring cylinder. After performing the Ultra-Turrax (a registered trademark for a high-performance dispersing instrument) for 20 seconds (8000 rpm), the initial height of the foam was measured for foam height. (volume in mL). Every time step of, 1, 3, 5, 10, 30, 60 minutes was noted. In addition, after 24 hours the stability was checked. Particularly, foaming power and stability of the surfactants were performed using an IKA Ultra-Turrax T25 with an 18 G dispersing element. At room temperature, an aqueous solution of 5 mL 0.4% surfactant in a 50 mL measuring cylinder (2.20 cm diameter) was mixed with the Ultra-Turrax for 20 seconds at 8000 rpm. The foam height (volume in mL) was denoted for 0, 1, 3, 5, 10, 30, 60 min and 24 hours. In addition, after 24 hours the stability was checked.

Row | Foamability (mL) after (min) 1 [mL] | SMILES
1 | 2 | CCCCCCN(C)C[C@H](O)[C@@H](O)[C@@H](O)CO [Compound 23, N-methyl-N-hexyl-L-arabinamine]
2 | 5 | CCCCCCCCN(C)C[C@H](O)[C@@H](O)[C@@H](O)CO [Compound 24, N-methyl-N-octyl-L-arabinamine]
3 | 3 | CCCCCCCCCCN(C)C[C@@H](O)[C@@H](O)[C@H](O)CO [Compound 24b, N-methyl-N-decyl-L-arabinamine]
4 | 5 | CCCCCCCCCCCCN(C)C[C@H](O)[C@@H](O)[C@@H](O)CO [Compound 25, N-methyl-N-dodecyl-L-arabinamine]
5 | 6 | CCCCCCCCCCN(C)C[C@H](O)[C@@H](O)[C@@H](O)[C@H](O)C(=O)O [Compound 25b, N-methyldecyl-D-galactaric acid amine]
6 | 0.2 | CCCCCCN(C)C[C@H](O)[C@@H](O)[C@@H](O)[C@H](O)C(=O)O [Compound 30, N-methyl-N-hexyl-D-galacturonic acid amine]

Same assay, conditions: Table E5.2; foam volume after 5 min

Row | Foamability (mL) after (min) 5 [mL] | SMILES
7 | 0.2 | CCCCCCN(C)C[C@H](O)[C@@H](O)[C@@H](O)CO [Compound 23, N-methyl-N-hexyl-L-arabinamine]
8 | 4.5 | CCCCCCCCN(C)C[C@H](O)[C@@H](O)[C@@H](O)CO [Compound 24, N-methyl-N-octyl-L-arabinamine]
9 | 3 | CCCCCCCCCCN(C)C[C@@H](O)[C@@H](O)[C@H](O)CO [Compound 24b, N-methyl-N-decyl-L-arabinamine]
10 | 5 | CCCCCCCCCCCCN(C)C[C@H](O)[C@@H](O)[C@@H](O)CO [Compound 25, N-methyl-N-dodecyl-L-arabinamine]
11 | 6 | CCCCCCCCCCN(C)C[C@H](O)[C@@H](O)[C@@H](O)[C@H](O)C(=O)O [Compound 25b, N-methyldecyl-D-galactaric acid amine]
12 | 0 | CCCCCCN(C)C[C@H](O)[C@@H](O)[C@@H](O)[C@H](O)C(=O)O [Compound 30, N-methyl-N-hexyl-D-galacturonic acid amine]

Same assay, conditions: Table E5.2; foam volume after 10 min

Row | Foamability (mL) after (min) 10 [mL] | SMILES
13 | 0 | CCCCCCN(C)C[C@H](O)[C@@H](O)[C@@H](O)CO [Compound 23, N-methyl-N-hexyl-L-arabinamine]
14 | 4 | CCCCCCCCN(C)C[C@H](O)[C@@H](O)[C@@H](O)CO [Compound 24, N-methyl-N-octyl-L-arabinamine]
15 | 2 | CCCCCCCCCCN(C)C[C@@H](O)[C@@H](O)[C@H](O)CO [Compound 24b, N-methyl-N-decyl-L-arabinamine]
16 | 4 | CCCCCCCCCCCCN(C)C[C@H](O)[C@@H](O)[C@@H](O)CO [Compound 25, N-methyl-N-dodecyl-L-arabinamine]
17 | 5 | CCCCCCCCCCN(C)C[C@H](O)[C@@H](O)[C@@H](O)[C@H](O)C(=O)O [Compound 25b, N-methyldecyl-D-galactaric acid amine]
18 | 0 | CCCCCCN(C)C[C@H](O)[C@@H](O)[C@@H](O)[C@H](O)C(=O)O [Compound 30, N-methyl-N-hexyl-D-galacturonic acid amine]

Assay: Foaming abilities, 1% compound solutions shaken by hand
Format: physicochemical
Design: key to FOAM: −: no foam formation; +: low foam formation; ++: moderate foam formation; +++: strong foam formation
Details: Table E4; pH > 7
Experimental: Foaming abilities were evaluated at room temperature by shaking 1% compound solutions (2 ml) of pH 3, 7, and 12 by hand for 10 s. The pH of each solution was assessed with a pH meter at room temperature. […] The foam heights at the initial time were compared to one another after which the foaming abilities were classified according to no foam formation (−), low foam formation (+), moderate foam formation (++), and strong foam formation (+++).

Row | FOAM | SMILES
19 | + | CCCCCCN(C)C[C@H](O)[C@@H](O)[C@@H](O)CO [Compound 23, N-methyl-N-hexyl-L-arabinamine]
20 | + | CCCCCCCCN(C)C[C@H](O)[C@@H](O)[C@@H](O)CO [Compound 24, N-methyl-N-octyl-L-arabinamine]
21 | ++ | CCCCCCCCCCCCN(C)C[C@H](O)[C@@H](O)[C@@H](O)CO [Compound 25, N-methyl-N-dodecyl-L-arabinamine]

Same assay, conditions: Table E5; PH > 7

Row | FOAM | SMILES
22 | ++ | CCCCCCN(C)C[C@H](O)[C@@H](O)[C@@H](O)[C@H](O)C(=O)O [Compound 30, N-methyl-N-hexyl-D-galacturonic acid amine]

Assay: Surface tension measurements, Wilhelmy plate (surface tension, CMC)
Format: physicochemical
Details: Table E4
Experimental: Surface tension measurements were performed with a Biolin Scientific Sigma701 automatic tension meter equipped with a Wilhelmy plate made of platinum (±0.5 mN/m). […] The number of experimental points is related to the compound's/surfactant's solubility and available quantity. All compound/surfactant solutions were allowed to stand 12 h before being measured. The platinum plate was thoroughly cleaned with demi water and flame-dried before each measurement. The CMC of each compound/surfactant was determined at the minimum of a breakpoint of a conventional plot of surface tension versus compound/surfactant concentration. DCMC was obtained by acquiring the surface tension at the CMC. The pC20 value was determined by taking the minus log of the concentration compound/surfactant at a surface tension of 52 mN/m.

Row | CMC (%) | SMILES
23 | 2 | CCCCCCN(C)C[C@H](O)[C@@H](O)[C@@H](O)CO [Compound 23, N-methyl-N-hexyl-L-arabinamine]
24 | 0.25 | CCCCCCCCN(C)C[C@H](O)[C@@H](O)[C@@H](O)CO [Compound 24, N-methyl-N-octyl-L-arabinamine]
25 | 0.1 | CCCCCCCCCCCCN(C)C[C@H](O)[C@@H](O)[C@@H](O)CO [Compound 25, N-methyl-N-dodecyl-L-arabinamine]

Same assay, conditions: Table E4; room temperature, pH 7

Row | SURFACE TENSION [mN/m] | SMILES
26 | 31.4 | CCCCCCN(C)C[C@H](O)[C@@H](O)[C@@H](O)CO [Compound 23, N-methyl-N-hexyl-L-arabinamine]
27 | 28.7 | CCCCCCCCN(C)C[C@H](O)[C@@H](O)[C@@H](O)CO [Compound 24, N-methyl-N-octyl-L-arabinamine]
28 | 26.2 | CCCCCCCCCCCCN(C)C[C@H](O)[C@@H](O)[C@@H](O)CO [Compound 25, N-methyl-N-dodecyl-L-arabinamine]

Same assay, conditions: Table E5

Row | CMC (%) | SMILES
29 | 2 | CCCCCCN(C)C[C@H](O)[C@@H](O)[C@@H](O)[C@H](O)C(=O)O [Compound 30, N-methyl-N-hexyl-D-galacturonic acid amine]

Same assay, conditions: Table E5; room temperature, pH 7

Row | SURFACE TENSION [mN/m] | SMILES
30 | 60.6 | CCCCCCN(C)C[C@H](O)[C@@H](O)[C@@H](O)[C@H](O)C(=O)O [Compound 30, N-methyl-N-hexyl-D-galacturonic acid amine]

Same assay, conditions: Table E5.2

Row | CMC (%) | Surface tension (nM/m) [mN/m] | SMILES
31 | 2 | 31.4 | CCCCCCN(C)C[C@H](O)[C@@H](O)[C@@H](O)CO [Compound 23, N-methyl-N-hexyl-L-arabinamine]
32 | 0.25 | 28.7 | CCCCCCCCN(C)C[C@H](O)[C@@H](O)[C@@H](O)CO [Compound 24, N-methyl-N-octyl-L-arabinamine]
33 | 0.2 | 33.7 | CCCCCCCCCCN(C)C[C@@H](O)[C@@H](O)[C@H](O)CO [Compound 24b, N-methyl-N-decyl-L-arabinamine]
34 | 0.1 | 26.2 | CCCCCCCCCCCCN(C)C[C@H](O)[C@@H](O)[C@@H](O)CO [Compound 25, N-methyl-N-dodecyl-L-arabinamine]
35 | 0.06 | 32.85 | CCCCCCCCCCN(C)C[C@H](O)[C@@H](O)[C@@H](O)[C@H](O)C(=O)O [Compound 25b, N-methyldecyl-D-galactaric acid amine]
36 |  | 42.1 | CCCCCCN(C)C[C@H](O)[C@@H](O)[C@@H](O)[C@H](O)C(=O)O [Compound 30, N-methyl-N-hexyl-D-galacturonic acid amine]

Assay: Solubility in water (excess of compound in 4 ml demi water)
Format: physicochemical
Details: not given
Experimental: Solubility is preferably solubility in aqueous solution, more preferably solubility in water, most preferably solubility in demineralised water. A skilled person knows how to assess such solubility.
Solubility in water was determined by preparing mixtures of an excess of compound dispersed in 4 ml demi water using a vortex at maximum speed for 1 min. […] 1 ml of the mixture was concentrated in vacuo to yield a solid. The mass of the solid was determined in mg to calculate the solubility in percentage by dividing by ten.

Row | solubility in H2O [%] | SMILES
37 | 30 | CCCCCCN(C)C[C@H](O)[C@@H](O)[C@@H](O)CO [Compound 23, N-methyl-N-hexyl-L-arabinamine]

Same assay, conditions: Table E4

Row | SOLUBILITY (H2O) [%] | SMILES
38 | 30 | CCCCCCN(C)C[C@H](O)[C@@H](O)[C@@H](O)CO [Compound 23, N-methyl-N-hexyl-L-arabinamine]
39 | 0.9 | CCCCCCCCN(C)C[C@H](O)[C@@H](O)[C@@H](O)CO [Compound 24, N-methyl-N-octyl-L-arabinamine]
40 | 0.06 | CCCCCCCCCCCCN(C)C[C@H](O)[C@@H](O)[C@@H](O)CO [Compound 25, N-methyl-N-dodecyl-L-arabinamine]

Same assay, conditions: Table E5

Row | SOLUBILITY (H2O) [%] | SMILES
41 | 40 | CCCCCCN(C)C[C@H](O)[C@@H](O)[C@@H](O)[C@H](O)C(=O)O [Compound 30, N-methyl-N-hexyl-D-galacturonic acid amine]

Same assay, conditions: Table E5.2; water

Row | Solubility [%] | SMILES
42 | 30 | CCCCCCN(C)C[C@H](O)[C@@H](O)[C@@H](O)CO [Compound 23, N-methyl-N-hexyl-L-arabinamine]
43 | 0.9 | CCCCCCCCN(C)C[C@H](O)[C@@H](O)[C@@H](O)CO [Compound 24, N-methyl-N-octyl-L-arabinamine]
44 | 0.1 | CCCCCCCCCCN(C)C[C@@H](O)[C@@H](O)[C@H](O)CO [Compound 24b, N-methyl-N-decyl-L-arabinamine]
45 | 0.06 | CCCCCCCCCCCCN(C)C[C@H](O)[C@@H](O)[C@@H](O)CO [Compound 25, N-methyl-N-dodecyl-L-arabinamine]
46 | 2 | CCCCCCCCCCN(C)C[C@H](O)[C@@H](O)[C@@H](O)[C@H](O)C(=O)O [Compound 25b, N-methyldecyl-D-galactaric acid amine]
47 | 40 | CCCCCCN(C)C[C@H](O)[C@@H](O)[C@@H](O)[C@H](O)C(=O)O [Compound 30, N-methyl-N-hexyl-D-galacturonic acid amine]

Same assay, conditions: earlier measurements, initially found

Row | solubility, earlier measurements [%] | SMILES
48 | 0.25 | CCCCCCCCN(C)C[C@H](O)[C@@H](O)[C@@H](O)CO [Compound 24, N-methyl-N-octyl-L-arabinamine]
